Data as given in US20070081991A1, “Compositions and methods for modulation of immune responses” (Pepgen Corporation, priority 2001, published 2007).
Entries after “also recorded” stand apart in the source; their conditions may differ.

What was measured:
Type in all cases: cell-based, human
[1] = tested on: HLA-E; experiment: HLA-E stabilization assay (cell surface expression by flow cytometry); details: K562 cells transfected with HLA-E*01033 or HLA-E*0101; overnight incubation with peptide at 26° C.
Description: Synthetic peptides, purchased from Research Genetics, were dissolved in PBS. The peptides used were B7sp ([…]) (SEC ID NO: 3), hsp60sp ([…]) (SEC ID NO: 2), B7 R5V ([…]) (SEC ID NO: 14), hsp60 V5R ([…]) ([…]), and P18I10 ([…]) (SEC ID NO: 113) (all from Research Genetics, Huntsville, Ala.). Cells and their HLA-E transfected derivatives were incubated with synthetic peptides (3-300 μM) at 26° C. for 15-20 hours in serum-free AIM-V medium (GibcoBRL, Paisley Scotland) at a concentration of 1-3.10^6 cells/ml. Cells were then harvested, washed in PBS, stained with mAbs and analyzed by flow cytometry. Cells were subjected to stress by allowing them to grow at increasing cell density.
To test whether the hsp60-derived peptides were able to bind HLA-E, stabilized HLA-E cell surface expression was stabilized with the different synthetic peptides, by overnight incubation at 26° C. For this purpose MHC class I-deficient cell lines such as 721.221 (which lack HLA-A, -B, -C, and -G, but express HLA-E and -F intracellularly), as well as K562 cells transfected with HLA-E*01033 (K562-E*01033) or HLA-E*0101 were employed. The 721.221 cells and HLA-E transfected, but not untransfected, K562 cells express low levels of HLA-E at the cell surface during normal cell growth.

[2] = tested on: CD94/NKG2A+ NK cell lines Nishi and NKL; experiment: NK cell-mediated cytotoxicity, 2 h 51Cr release, peptide-loaded K562-E*01033 targets; details: targets incubated overnight at 26° C. with peptide; effectors NKL and Nishi
Description: K562-E*01033 cells were incubated with the different peptides at 26° C. for 15-20 hours, and then tested in 2 h 51Cr release assays. In order to ensure that the levels of HLA-E with a protective peptide, and not the HLA-E levels as such, provided the protective capacity we kept the non-protective peptides, but omitted the B7sp, during the assays. (a) Killing of K562-E*01033 cells by NKL (left) or Nishi (right) after incubation with […], 300 mM hsp60sp, or 30 mM B7sp. 50 mM of P18I10 control peptide and hsp60sp was also included during the assays. Data from an E:T ratio of 30:1 is shown. The figure represents the mean of at least three experiments. Error bars indicate standard error of the mean. (b) Killing of K562-E*01033 cells by NKL (left panel) or Nishi (right panel) incubated over night with 30 mM 7sp, 300 mM P18I10 (pCtrl), 300 mM B7 R5V, 300 mM hsp60sp, or 300 mM hsp60 V5R. 50 mM of all peptides, except B7sp, were included during the assay. Peptide concentrations were chosen according to FIG. 5c. The figure represents the mean of at least three experiments. Error bars indicate standard error of the mean. (c) HLA-E cell surface expression by K562-E*01033 after the assay. A cold target preparation was prepared in parallel as in (a) and (b), and then stained with DX17 mAb (anti-HLA class I), followed by RPE-conjugated goat-anti-mouse IgG. One representative example out of more than 5 is shown. Note that, as in (a) and (b), 50 mM of all peptides, except for B7sp, was present during the time of the assay, explaining the lower HLA-E expression with B7sp compared to Hsp60sp, Hsp60 V5R and B7 R5V. (d) Killing of K562-E*01033 cells by Nishi after incubation for 30 min at room temperature with 0.1 mM B7sp and increasing amounts of competing peptides (hsp60sp, hsp60.4, B7 R5V and P18I10). All the peptides were kept throughout the assay
NK cell-mediated cytotoxicity was measured using a 2 hours standard ^51Cr radioisotope release assay. Briefly, target cells were incubated for 15-20 hours at 26° C. with the various peptides at concentrations ranging from 1-300 μM, and then labeled with ^51Cr. Peptides were washed away prior to setting up the assays, except in some experiments where the non-protective hsp60sp, B7 R5V and hsp60 V5R was kept throughout the assay to assure higher levels of HLA-E expression, as compared to targets incubated with the protective B7sp. In mAb blocking experiments, cells were preincubated with mouse serum, or an irrelevant isotype matched antibody to block Fc-receptors. Blocking of either target or effector cells with mAbs was performed at 4° C., and the antibodies were also included during the assays. […]

[3] = tested on: NKL and Nishi effector cells; experiment: Killing of K562-E*01033 cells grown at increasing cell density (stress), 2 h 51Cr release; details: peptide added in the assay; 100 mM B7sp (FIG. 6b legend)
Description: (a) Killing of K562-E*01033 cells (grown at increasing cell densities as in FIG. 3b) by NKL in a 2 h 51Cr release assay. (b) Same experimental setting as above, in the presence of 100 mM B7sp. Closed circles-high density; open squares-medium density; closed triangles-low density. (c) HLA-E expression on the K562-E*01033 cells after culture at increasing cell density.
Briefly, cell cultures were set up at the cell concentration of 0.2.10^6 cells/ml at different time points for a period of up to 6 days. At the end point, cell concentration and viability were determined by trypan blue exclusion. The expression of cell-surface HLA class I molecules was assessed by flow cytometry. Cell cultures with viability higher than 90% and at three different densities were selected as targets for cytotoxic assays. HLA-E Tetramer Production
K562-E*01033 cells grown at different densities were tested as targets in a 2 hours chromium release assay with NKL and Nishi as effector cells. […] The data also subbest that HLA-E expression induced by stress is not sufficient to protect from NK cell mediated killing. […] Therefore it is unlikely that the increased killing after cellular stress observed in some of the experiments herein is due to an increased expression of MIC-A or MIC-B. Up-regulation of other activating ligands, e.g., ULBP's, may also be responsible for the increase in killing.

[4] = tested on: NK cells of PB and SF mononuclear cells of RA patients; experiment: NK cell cytokine production on contact with peptide stabilized K562 HLA-E*01033 cells (intracellular staining, flow cytometry); details: K562 HLA-E*01033 stabilized with various doses of peptide; 1:1 cell ratio, 4 hours
Description: HLA-E expression was stabilized on K562 cells transfected with HLA-E*01033, by incubation with various doses of HLA-B7 signal sequence derived peptide ([…]) (SEQ ID NO: 3). PB and SF mononuclear cells (MC) of RA patients were then incubated with peptide stabilized K562 cells (1:1 cell ratio) for 4 hours in the presence of GolgiStop™. Cells were surface stained for CD3 and CD56 and thereafter stained intracellularly for IFN-gamma or TNF-alpha. Analysis was performed by flow cytometry.

Sequence: VMAPRTVLL [B7sp]
- HLA-E cell surface expression (stabilization) [1]: stabilization of HLA-E
- protection of K562-E*01033 cells from killing by NK cells [2]: clear protection from killing
- rescue of stressed (high density) K562-E*01033 cells from killing [3]: could be rescued from killing by addition of B7sp peptide; also recorded: stressed cells were protected simply by adding the protective B7sp peptide
- NK cell IFN-gamma production [4]: sufficient to inhibit NK cell IFN-gamma and TNF-alpha cytokine production
- NK cell TNF-alpha production [4]: sufficient to inhibit NK cell IFN-gamma and TNF-alpha cytokine production
